In ChEMBL document CHEMBL4330071 (Eur J Med Chem, 2019):

What was measured:
[1] = biological target: RAC-alpha serine/threonine-protein kinase (Homo sapiens) (UniProt P31749); experiment: Inhibition of human AKT1 assessed as residual activity at 10 uM using KGSGSGRPRTSSFAEG as substrate preincubated for 20 mins followed by [gamma-33P]-ATP addition and measured after 120 mins by Hotspot assay relative to control
[2] = biological target: Serine/threonine-protein kinase B-raf (Homo sapiens) (UniProt P15056); experiment: Inhibition of human BRAF assessed as residual activity at 10 uM using MEK1 (K97R) as substrate preincubated for 20 mins followed by [gamma-33P]-ATP addition and measured after 120 mins by Hotspot assay relative to control
[3] = biological target: T1, Tyrosine-protein kinase BTK (Homo sapiens, UniProt Q06187); experiment: Inhibition of human BTK assessed as residual activity at 10 uM using KVEKIGEGTYGVVYK as substrate preincubated for 20 mins followed by [gamma-33P]-ATP addition and measured after 120 mins by Hotspot assay relative to control
[4] = biological target: CDK2/Cyclin A2 (Homo sapiens) (UniProt P24941+P20248); experiment: Inhibition of human CDK2/cyclin-A assessed as residual activity at 10 uM using histone H1 as substrate preincubated for 20 mins followed by [gamma-33P]-ATP addition and measured after 120 mins by Hotspot assay relative to control; format: protein-complex assay
[5] = biological target: Cyclin-dependent kinase 5/CDK5 activator 1 (Homo sapiens) (UniProt Q00535+Q15078); experiment: Inhibition of human CDK5/p25 assessed as residual activity at 10 uM using histone H1 as substrate preincubated for 20 mins followed by [gamma-33P]-ATP addition and measured after 120 mins by Hotspot assay relative to control; format: protein-complex assay
[6] = biological target: Epidermal growth factor receptor (Homo sapiens) (UniProt P00533); experiment: Inhibition of human EGFR assessed as residual activity at 10 uM using poly[Glu:Tyr] (4:1) as substrate preincubated for 20 mins followed by [gamma-33P]-ATP addition and measured after 120 mins by Hotspot assay relative to control
[7] = biological target: Mitogen-activated protein kinase 1 (Homo sapiens) (UniProt P28482); experiment: Inhibition of human ERK2 assessed as residual activity at 10 uM using MBP as substrate preincubated for 20 mins followed by [gamma-33P]-ATP addition and measured after 120 mins by Hotspot assay relative to control
[8] = biological target: Glycogen synthase kinase-3 beta (Homo sapiens) (UniProt P49841); experiment: Inhibition of human GSK3B assessed as residual activity at 10 uM using YRRAAVPPSPSLSRHSSPHQ(pS)EDEEE as substrate preincubated for 20 mins followed by [gamma-33P]-ATP addition and measured after 120 mins by Hotspot assay relative to control
[9] = biological target: Insulin-like growth factor 1 receptor (Homo sapiens) (UniProt P08069); experiment: Inhibition of human IGF1R assessed as residual activity at 10 uM using KKKSPGEYVNIEFG as substrate preincubated for 20 mins followed by [gamma-33P]-ATP addition and measured after 120 mins by Hotspot assay relative to control
[10] = biological target: T2, Tyrosine-protein kinase Lck (Homo sapiens, UniProt P06239); experiment: Inhibition of human LCK assessed as residual activity at 10 uM using poly[Glu:Tyr] (4:1) as substrate preincubated for 20 mins followed by [gamma-33P]-ATP addition and measured after 120 mins by Hotspot assay relative to control
Target sequence in this assay (P06239 2-509 limits assumed): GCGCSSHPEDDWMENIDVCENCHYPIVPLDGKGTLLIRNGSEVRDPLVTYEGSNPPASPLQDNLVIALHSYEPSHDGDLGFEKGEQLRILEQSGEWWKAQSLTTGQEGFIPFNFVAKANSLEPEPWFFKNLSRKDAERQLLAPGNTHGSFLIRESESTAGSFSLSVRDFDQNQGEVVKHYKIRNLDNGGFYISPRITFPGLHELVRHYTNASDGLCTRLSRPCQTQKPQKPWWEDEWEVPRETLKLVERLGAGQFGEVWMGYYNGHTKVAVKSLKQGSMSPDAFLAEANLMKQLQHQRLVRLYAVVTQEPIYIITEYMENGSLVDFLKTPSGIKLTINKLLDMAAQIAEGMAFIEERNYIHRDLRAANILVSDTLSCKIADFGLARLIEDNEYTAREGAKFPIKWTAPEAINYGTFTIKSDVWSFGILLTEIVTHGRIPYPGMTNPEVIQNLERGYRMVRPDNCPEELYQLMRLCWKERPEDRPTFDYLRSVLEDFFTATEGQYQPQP

[11] = biological target: Mitogen-activated protein kinase kinase kinase 1 (Homo sapiens) (UniProt Q13233); experiment: Inhibition of human MEKK1 assessed as residual activity at 10 uM using MBP as substrate preincubated for 20 mins followed by [gamma-33P]-ATP addition and measured after 120 mins by Hotspot assay relative to control
[12] = biological target: Mitogen-activated protein kinase 14 (Homo sapiens) (UniProt Q16539); experiment: Inhibition of human p38alpha assessed as residual activity at 10 uM using MBP as substrate preincubated for 20 mins followed by [gamma-33P]-ATP addition and measured after 120 mins by Hotspot assay relative to control
[13] = biological target: Tyrosine-protein kinase ABL1 (Homo sapiens, UniProt P00519, H396P); experiment: Binding affinity to human non-phosphorylated ABL1 H396P mutant (S229 to K512 residues) expressed in mammalian expression system after 60 mins by Kinomescan method
[14] = biological target: Tyrosine-protein kinase ABL1 (Homo sapiens, UniProt P00519, T315I); experiment: Binding affinity to human non-phosphorylated ABL1 T315I mutant (S229 to K512 residues) expressed in mammalian expression system after 60 mins by Kinomescan method
[15] = biological target: Macrophage colony-stimulating factor 1 receptor (Homo sapiens, UniProt P07333); experiment: Binding affinity to wild-type human partial length CSF1R (I564 to S939 residues) expressed in bacterial expression system after 60 mins by Kinomescan method
[16] = biological target: Tyrosine-protein kinase ABL1 (Homo sapiens, UniProt P00519); experiment: Inhibition of human ABL1 using EAIYAAPFAKKK as substrate preincubated for 20 mins followed by [gamma-33P]-ATP addition and measured after 120 mins by Hotspot assay
[17] = biological target: Fibroblast growth factor receptor 1 (Homo sapiens, UniProt P11362); experiment: Inhibition of human FGFR1 using KKKSPGEYVNIEFG as substrate preincubated for 20 mins followed by [gamma-33P]-ATP addition and measured after 120 mins by Hotspot assay
[18] = biological target: T2, Tyrosine-protein kinase Lck; experiment: Inhibition of human LCK using poly[Glu:Tyr] (4:1) as substrate preincubated for 20 mins followed by [gamma-33P]-ATP addition and measured after 120 mins by Hotspot assay
Target sequence in this assay (P06239 whole entry): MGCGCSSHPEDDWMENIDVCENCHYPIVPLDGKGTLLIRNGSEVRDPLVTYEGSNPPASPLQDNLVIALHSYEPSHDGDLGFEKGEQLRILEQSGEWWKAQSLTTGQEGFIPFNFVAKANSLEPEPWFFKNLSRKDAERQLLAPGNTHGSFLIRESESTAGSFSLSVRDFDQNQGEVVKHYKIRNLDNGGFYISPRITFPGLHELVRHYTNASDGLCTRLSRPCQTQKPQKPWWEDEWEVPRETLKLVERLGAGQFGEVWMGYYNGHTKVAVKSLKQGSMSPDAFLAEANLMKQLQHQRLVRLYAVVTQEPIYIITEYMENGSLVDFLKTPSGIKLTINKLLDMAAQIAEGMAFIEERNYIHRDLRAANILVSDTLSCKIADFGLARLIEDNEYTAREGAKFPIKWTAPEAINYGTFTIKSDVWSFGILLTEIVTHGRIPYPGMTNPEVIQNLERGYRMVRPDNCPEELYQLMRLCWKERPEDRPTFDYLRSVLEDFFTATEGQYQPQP

[19] = biological target: T1, Tyrosine-protein kinase BTK; experiment: Inhibition of human BTK using KVEKIGEGTYGVVYK as substrate preincubated for 20 mins followed by [gamma-33P]-ATP addition and measured after 120 mins by Hotspot assay
[20] = biological target: Cyclin-dependent kinase 7/ cyclin H (Homo sapiens, UniProt P50613); experiment: Inhibition of human CDK7/cyclin-H using MBP as substrate preincubated for 20 mins followed by [gamma-33P]-ATP addition and measured after 120 mins by Hotspot assay; format: protein-complex assay
MV4-11 [21] = experiment: Induction of apoptosis in human MV4-11 cells assessed as late apoptotic cells at 0.05 uM after 24 hrs by Annexin V-FITC/propidium iodide staining based flow cytometric analysis (reference value: 1.42%); format: functional
MV4-11 [22] = experiment: Induction of apoptosis in human MV4-11 cells assessed as necrotic cells at 0.05 uM after 24 hrs by Annexin V-FITC/propidium iodide staining based flow cytometric analysis (reference value: 0%); format: functional
MV4-11 [23] = experiment: Induction of apoptosis in human MV4-11 cells assessed as necrotic cells at 1 uM after 24 hrs by Annexin V-FITC/propidium iodide staining based flow cytometric analysis (reference value: 0%); format: functional
MV4-11 [24] = experiment: Induction of apoptosis in human MV4-11 cells assessed as viable cells at 1 uM after 24 hrs by Annexin V-FITC/propidium iodide staining based flow cytometric analysis (reference value: 95.19%); format: functional; conditions: MV4-11, 24 h, read-out: Activity
[25] = Intrinsic clearance in rat liver microsomes assessed per mg protein at 1 uM after 5 to 60 mins in presence of NADPH by LC-MS/MS analysis; format: ADME, Microsome; conditions: read-out: CLH

T1 sequence (Q06187 whole entry): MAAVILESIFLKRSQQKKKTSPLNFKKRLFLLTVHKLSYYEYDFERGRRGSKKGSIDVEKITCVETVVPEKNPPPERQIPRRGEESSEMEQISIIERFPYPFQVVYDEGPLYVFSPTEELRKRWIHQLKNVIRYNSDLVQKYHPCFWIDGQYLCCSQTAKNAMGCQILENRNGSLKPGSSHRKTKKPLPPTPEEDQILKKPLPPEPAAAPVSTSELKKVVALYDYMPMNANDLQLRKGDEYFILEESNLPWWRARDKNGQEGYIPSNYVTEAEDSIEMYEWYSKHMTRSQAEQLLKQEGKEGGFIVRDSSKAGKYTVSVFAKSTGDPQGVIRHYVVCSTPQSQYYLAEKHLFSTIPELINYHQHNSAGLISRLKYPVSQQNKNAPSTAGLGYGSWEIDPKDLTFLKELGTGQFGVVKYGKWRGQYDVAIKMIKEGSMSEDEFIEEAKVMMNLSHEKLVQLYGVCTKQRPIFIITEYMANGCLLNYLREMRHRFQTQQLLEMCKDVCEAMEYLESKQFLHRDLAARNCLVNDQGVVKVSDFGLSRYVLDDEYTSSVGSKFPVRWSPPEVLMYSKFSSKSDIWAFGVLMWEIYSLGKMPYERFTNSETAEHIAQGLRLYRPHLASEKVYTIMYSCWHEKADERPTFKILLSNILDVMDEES
Mitogen-activated protein kinase kinase kinase 1 (Homo sapiens), sequence (Q13233 whole entry): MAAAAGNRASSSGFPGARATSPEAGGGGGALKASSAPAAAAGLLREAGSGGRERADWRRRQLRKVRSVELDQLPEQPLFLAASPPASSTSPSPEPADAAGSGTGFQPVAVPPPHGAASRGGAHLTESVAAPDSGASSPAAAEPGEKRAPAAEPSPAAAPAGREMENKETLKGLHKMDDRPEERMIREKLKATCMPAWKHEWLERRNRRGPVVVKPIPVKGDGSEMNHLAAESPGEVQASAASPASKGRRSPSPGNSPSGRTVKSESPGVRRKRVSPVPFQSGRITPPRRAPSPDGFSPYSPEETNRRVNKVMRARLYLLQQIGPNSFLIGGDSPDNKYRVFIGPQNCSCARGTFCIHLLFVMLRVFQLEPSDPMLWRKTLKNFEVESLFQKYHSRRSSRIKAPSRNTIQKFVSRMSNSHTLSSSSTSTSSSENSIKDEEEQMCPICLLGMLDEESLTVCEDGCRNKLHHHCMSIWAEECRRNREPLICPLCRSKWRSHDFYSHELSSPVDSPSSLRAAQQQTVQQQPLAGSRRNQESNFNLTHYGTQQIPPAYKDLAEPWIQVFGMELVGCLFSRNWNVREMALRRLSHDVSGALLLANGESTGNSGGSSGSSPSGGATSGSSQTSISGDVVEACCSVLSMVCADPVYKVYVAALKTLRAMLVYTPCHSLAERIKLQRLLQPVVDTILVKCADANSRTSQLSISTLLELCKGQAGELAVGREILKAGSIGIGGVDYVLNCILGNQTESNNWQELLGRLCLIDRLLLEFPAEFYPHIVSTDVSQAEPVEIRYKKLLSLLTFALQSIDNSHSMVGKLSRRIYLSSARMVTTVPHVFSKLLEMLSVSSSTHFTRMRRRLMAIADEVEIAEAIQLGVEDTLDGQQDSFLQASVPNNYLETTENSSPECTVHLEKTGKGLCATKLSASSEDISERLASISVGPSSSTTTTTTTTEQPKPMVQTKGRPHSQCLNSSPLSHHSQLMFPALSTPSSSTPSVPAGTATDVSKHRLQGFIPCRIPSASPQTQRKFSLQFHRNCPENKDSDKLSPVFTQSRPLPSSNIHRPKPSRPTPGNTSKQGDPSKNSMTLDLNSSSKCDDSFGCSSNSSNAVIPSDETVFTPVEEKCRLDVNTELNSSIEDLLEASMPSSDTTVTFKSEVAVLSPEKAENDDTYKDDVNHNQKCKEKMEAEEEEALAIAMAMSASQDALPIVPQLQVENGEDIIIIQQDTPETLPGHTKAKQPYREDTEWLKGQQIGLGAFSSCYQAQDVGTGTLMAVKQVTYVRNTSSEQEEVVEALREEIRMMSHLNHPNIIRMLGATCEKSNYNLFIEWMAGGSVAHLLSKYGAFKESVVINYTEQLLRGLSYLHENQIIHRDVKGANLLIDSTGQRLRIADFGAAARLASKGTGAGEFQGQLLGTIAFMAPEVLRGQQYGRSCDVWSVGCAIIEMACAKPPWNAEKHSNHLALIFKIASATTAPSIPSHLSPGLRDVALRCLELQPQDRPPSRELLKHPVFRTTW
Cyclin-dependent kinase 5/CDK5 activator 1 (Homo sapiens), sequence (Q00535 whole entry): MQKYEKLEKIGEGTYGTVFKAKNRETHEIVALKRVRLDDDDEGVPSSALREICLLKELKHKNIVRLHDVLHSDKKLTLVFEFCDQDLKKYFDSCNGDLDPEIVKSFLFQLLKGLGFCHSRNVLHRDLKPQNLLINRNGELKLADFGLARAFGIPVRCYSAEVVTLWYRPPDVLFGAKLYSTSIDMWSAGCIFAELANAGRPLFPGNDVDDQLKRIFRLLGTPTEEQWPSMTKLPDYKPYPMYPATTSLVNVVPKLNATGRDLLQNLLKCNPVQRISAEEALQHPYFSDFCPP
Cyclin-dependent kinase 5/CDK5 activator 1 (Homo sapiens), sequence (Q15078 99-307 partner limits assumed): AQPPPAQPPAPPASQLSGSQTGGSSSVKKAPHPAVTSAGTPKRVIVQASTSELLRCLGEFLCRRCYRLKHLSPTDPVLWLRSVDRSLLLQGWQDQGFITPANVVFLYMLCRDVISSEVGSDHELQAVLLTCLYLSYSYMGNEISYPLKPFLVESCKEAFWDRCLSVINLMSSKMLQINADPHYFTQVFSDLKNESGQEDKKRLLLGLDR
Epidermal growth factor receptor (Homo sapiens), sequence (P00533 whole entry): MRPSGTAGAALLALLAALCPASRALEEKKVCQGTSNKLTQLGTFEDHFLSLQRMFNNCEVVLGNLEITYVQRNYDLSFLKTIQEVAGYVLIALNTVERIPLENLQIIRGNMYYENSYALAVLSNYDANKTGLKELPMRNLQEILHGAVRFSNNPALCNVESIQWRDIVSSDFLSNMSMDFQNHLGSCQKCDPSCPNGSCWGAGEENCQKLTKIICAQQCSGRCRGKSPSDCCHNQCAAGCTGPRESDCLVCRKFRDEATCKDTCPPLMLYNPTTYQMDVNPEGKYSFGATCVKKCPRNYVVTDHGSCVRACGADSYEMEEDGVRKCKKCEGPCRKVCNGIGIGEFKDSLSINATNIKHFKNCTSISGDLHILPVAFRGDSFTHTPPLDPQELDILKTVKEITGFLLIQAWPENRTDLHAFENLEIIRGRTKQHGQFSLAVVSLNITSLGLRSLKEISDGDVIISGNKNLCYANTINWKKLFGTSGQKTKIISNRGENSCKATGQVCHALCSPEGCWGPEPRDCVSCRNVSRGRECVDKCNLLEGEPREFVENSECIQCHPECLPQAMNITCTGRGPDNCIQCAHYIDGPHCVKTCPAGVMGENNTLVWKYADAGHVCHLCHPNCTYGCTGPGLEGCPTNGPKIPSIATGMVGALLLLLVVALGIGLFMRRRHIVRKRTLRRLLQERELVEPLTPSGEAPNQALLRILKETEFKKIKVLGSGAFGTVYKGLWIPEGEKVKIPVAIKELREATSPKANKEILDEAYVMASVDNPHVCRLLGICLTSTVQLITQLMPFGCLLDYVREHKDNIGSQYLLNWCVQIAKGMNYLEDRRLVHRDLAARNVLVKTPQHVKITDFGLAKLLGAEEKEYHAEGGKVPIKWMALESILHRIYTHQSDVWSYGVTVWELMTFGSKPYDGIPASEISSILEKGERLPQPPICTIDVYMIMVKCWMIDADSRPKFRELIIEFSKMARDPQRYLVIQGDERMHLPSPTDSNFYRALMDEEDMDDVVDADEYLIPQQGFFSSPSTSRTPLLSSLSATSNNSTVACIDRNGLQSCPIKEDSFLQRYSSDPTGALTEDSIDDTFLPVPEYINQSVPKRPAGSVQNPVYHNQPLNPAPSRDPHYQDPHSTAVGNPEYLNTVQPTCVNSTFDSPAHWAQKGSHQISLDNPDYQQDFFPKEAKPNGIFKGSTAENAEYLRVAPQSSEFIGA

Molecule `CN1CCC(Nc2ccc(C(=O)Nc3cc(-c4cc(C#N)cs4)n[nH]3)cc2)CC1` has an Activity [1] of 90.7%, an Activity [2] of 67.7% and an Activity [3] of 12.9%. It also gave an Activity [4] of 66.8%, an Activity [5] of 60.4% and an Activity [6] of 65.5%. For the same molecule, the Activity [7] was 102%, the Activity [8] was 72.8% and the Activity [9] was 94.8%. It also gave an Activity [10] of 8.39%, an Activity [11] of 66.2% and an Activity [12] of 98.4%. The Kd [13] was 0.28 µM, the Kd [14] was 0.58 µM and the Kd [15] was 0.047 µM. The IC50 ([16]; read-out: IC50) was 0.931 µM, the IC50 ([16]; read-out: pIC50 (converted)) was 1 µM and the IC50 [17] was 0.962 µM. For the same molecule, the IC50 [18] was 1.01 µM, the IC50 ([19]; read-out: IC50) was 1.64 µM and the IC50 ([19]; read-out: pIC50 (converted)) was 1.58 µM. For the same molecule, the IC50 [20] was 7.91 µM, the Activity (MV4-11 [21]) was 14.8% and the Activity (MV4-11 [22]) was 4.51%. The Activity (MV4-11 [23]) was 6.35%, the viability at 1 µM (MV4-11 [24]) was 34.5% and the microsomal CLint at 1 µM [25] was 171 µL/min/mg.
